How the values were obtained:
Wee1-like protein kinase = Wee1-like protein kinase (Homo sapiens, UniProt P30291); assay: Inhibition of human WEE1 using LSNLYHQGKFLQTFCGSPLYRRR peptide as substrate incubated for 40 mins in presence of [gamma-33P]ATP by scintillation counting method
[1] = biological target: Serine/threonine-protein kinase PLK1 (Homo sapiens, UniProt P53350); assay: Inhibition of human PLK1 incubated for 40 mins in presence of [gamma-33P]ATP by scintillation counting method
[2] = Oral bioavailability in CD-1 mouse at 10 mg/kg; format: ADME, organism-based; conditions: in vivo

Chain of Serine/threonine-protein kinase PLK1 (P53350 whole entry): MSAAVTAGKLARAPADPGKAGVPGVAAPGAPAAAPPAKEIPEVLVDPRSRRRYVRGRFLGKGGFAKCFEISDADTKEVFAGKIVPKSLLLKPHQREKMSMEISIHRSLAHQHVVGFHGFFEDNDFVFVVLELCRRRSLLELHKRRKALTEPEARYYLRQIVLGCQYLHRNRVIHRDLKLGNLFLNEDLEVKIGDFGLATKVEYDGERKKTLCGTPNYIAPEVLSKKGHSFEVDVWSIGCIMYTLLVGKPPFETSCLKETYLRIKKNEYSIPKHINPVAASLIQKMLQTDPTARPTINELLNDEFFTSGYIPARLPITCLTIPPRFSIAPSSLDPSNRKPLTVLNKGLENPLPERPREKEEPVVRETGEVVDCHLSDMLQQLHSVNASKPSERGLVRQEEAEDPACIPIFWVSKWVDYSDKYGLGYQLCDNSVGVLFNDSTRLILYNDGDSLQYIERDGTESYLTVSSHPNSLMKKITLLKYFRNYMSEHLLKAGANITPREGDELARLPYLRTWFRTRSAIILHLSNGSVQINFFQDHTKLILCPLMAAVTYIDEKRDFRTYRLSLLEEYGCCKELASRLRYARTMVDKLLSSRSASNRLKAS
Chain of Wee1-like protein kinase (P30291 whole entry): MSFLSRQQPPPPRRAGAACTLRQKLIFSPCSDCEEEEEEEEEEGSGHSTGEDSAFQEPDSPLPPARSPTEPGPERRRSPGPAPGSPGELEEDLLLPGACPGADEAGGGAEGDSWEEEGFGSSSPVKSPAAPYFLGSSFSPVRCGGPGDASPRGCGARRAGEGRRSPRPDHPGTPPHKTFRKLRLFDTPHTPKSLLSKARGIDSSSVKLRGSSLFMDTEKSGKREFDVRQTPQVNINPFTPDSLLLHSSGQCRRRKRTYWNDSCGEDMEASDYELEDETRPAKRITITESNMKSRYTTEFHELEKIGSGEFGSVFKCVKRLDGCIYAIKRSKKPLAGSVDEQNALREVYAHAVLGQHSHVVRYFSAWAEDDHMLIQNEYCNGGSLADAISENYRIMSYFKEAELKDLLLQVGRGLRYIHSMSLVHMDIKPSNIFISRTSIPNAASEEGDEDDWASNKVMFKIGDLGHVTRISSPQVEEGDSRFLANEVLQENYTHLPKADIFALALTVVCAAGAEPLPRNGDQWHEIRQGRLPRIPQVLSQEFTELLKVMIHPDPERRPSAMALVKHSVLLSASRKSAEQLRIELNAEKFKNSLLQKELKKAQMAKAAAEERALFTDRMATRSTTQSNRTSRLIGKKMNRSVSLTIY

Row | Structure (SMILES) | IC50 (Wee1-like protein kinase) [nM] | IC50 [1] [nM] | bioavailability [2] [%]
1 | CC(C)(O)c1cccc(-n2cc(F)c3cnc(Nc4ccc(NC(=O)C5CCOCC5)cc4)nc32)n1 | 52 | 30 | –
2 | CC(C)(O)c1cccc(-n2cc(F)c3cnc(Nc4ccc(C(=O)NC5CCOCC5)cc4)nc32)n1 | 45 | 9 | –
3 | CN1CCN(c2ccc(Nc3ncc4c(F)cn(-c5cccc(N=S(C)(C)=O)n5)c4n3)cc2)CC1 | 26 | 384 | > 90
4 | CN1CCN(c2ccc(Nc3ncc4c(F)cn(-c5cccc(C6(F)COC6)n5)c4n3)cc2)CC1 | 19 | 24 | –
5 | CN1CCC(NC(=O)c2ccc(Nc3ncc4ccn(-c5cccc(C(C)(C)O)n5)c4n3)cc2)CC1 | 33 | 59 | –
6 | CC(C)(O)c1cccc(-n2cc(F)c3cnc(Nc4ccc(N5C[C@H]6C[C@@H]5CN6)cc4)nc32)n1 | 21 | 19 | –
7 | CCN1CCC(Oc2ccc(Nc3ncc4c(F)cn(-c5cccc(C(C)(C)O)n5)c4n3)cc2)CC1 | 19 | 39 | –
8 | CC(C)(O)c1cccc(-n2cc(F)c3cnc(Nc4ccc(N5CCNCC5)cc4)nc32)n1 | 52 | 60 | –
9 | CC(C)(O)c1cccc(-n2cc(F)c3cnc(Nc4ccc(N5CCNC6(CC6)C5)cc4)nc32)n1 | 63 | 61 | –
10 | CCN1CCC(NC(=O)c2ccc(Nc3ncc4c(F)cn(-c5cccc(C(C)(C)O)n5)c4n3)cc2)CC1 | 33 | 34 | –
11 | CN1CCC(NC(=O)c2ccc(Nc3ncc4c(F)cn(-c5cccc(C(C)(C)O)n5)c4n3)cc2)CC1 | 39 | 29 | –
12 | CC(C)(O)c1cccc(-n2cc(F)c3cnc(Nc4ccc(N5C[C@@H]6C[C@H]5CN6)cc4)nc32)n1 | 24 | 30 | –
